From US20240325495A1, “FUSION PROTEINS FOR THE TREATMENT OF DISEASE” (Bristol-Myers Squibb Company, priority 2020, published 2024) come the findings set out here.

This test has as its system NZB×NZW F1 mice. In words: mIL-2/CD25 and prednisolone combination in NZB×NZW mice. The class given is in vivo, mouse. On the procedure:
The effect of mIL-2/CD25 on Tregs was also assessed in the spleen at completion of this study (after 14 weeks of treatment).
At completion of study, one kidney from each mouse was collected in RNA Later and then homogenized in mRNA Catcher Lysis Buffer with a Tissue Lyser. mRNA was purified using mRNA Catcher PLUS according to the manufacturer's protocol (Invitrogen). cDNA was synthesized using SuperScript II with random hexamer primers. PCR was performed with SYBR Green Master Mix (Invitrogen). Relative quantification analysis was determined using the 2-ΔΔCT method using cyclophilin (PPIA) as the housekeeping gene. Expression of inflammatory cytokine and leukocyte surface receptors were analyzed.

The structures appear in SMILES notation.

Consider `C[C@]12C=CC(=O)C=C1CC[C@@H]1[C@@H]2[C@@H](O)C[C@@]2(C)[C@H]1CC[C@]2(O)C(=O)CO` [prednisolone, Prednisolone], for which the “percentage of Tregs and CD25 MFI on Tregs in the spleen” value (after 14 weeks of treatment) is reported as “did not alter”. Also, the “proteinuria levels and anti-dsDNA titers” value (prednisolone 1 mg/kg p.o. 3×/week, mIL-2/CD25 0.1 mg/kg s.c. 2×/week, or both, 14 weeks) is reported as “partial protection”.
